Data published in US8536304B2, “Tumour-associated peptides that bind to MHC molecules” (Immatics Biotechnologies GmbH, priority 2002, dated 2013).

Legend:
Format in all cases: cell-based, human
[1] = system: CD8+-T-lymphocytes; assay: HLA-A*0201-tetramer staining of peripheral blood mononuclear cells from healthy individuals
From the text: Peripheral blood mononuclear cells from healthy patients were stained with HLA-A*0201-tetramers which were folded with adipophilin-, keratin 18- or met-protooncogene (c-Met)-peptides: For generation of the tetramers, recombinant HLA-A*0201-molecules were folded in vitro with the peptides […] (SEQ ID No. 2, adipophilin), […] (SEQ ID No. 3, keratin 18) or […] (SEQ ID No. 1, met-protooncogene, c-Met), purified by means of gel filtration, biotinylated and mixed with streptavidin to link the monomers.
In FIG. 1, the results of double staining are shown in dotplots, whereby in the middle row the results of staining with keratin 18 is shown. Between 0.02 and 0.2% of the CD8^+-positive T-cells were specific for keratin 18.

[2] = system: autologous DC of CLL patient; assay: 51Cr-release assay, CTL of CLL patient against autologous peptide-pulsed DC; details: adipophilin-peptide-induced CTL of CLL patient; FIG. 6
Method: In the CTL-assays, tumor cells, peptide-pulsed cells of different cell lines and autologous DC were used as target cells. Peptide-pulsed cells were pulsed with 50 μg/ml peptide (SEQ ID No. 1 or SEQ ID No. 2) for 2 hours. All target cells were labeled with [^51Cr] sodium chromate in RP10 (RPMI 1640, supplemented with 10% heat inactivated calf serum and antibiotics) for 1 hour at 37° C. Subsequently, 10^4 cells/well were transferred to a 96-well round bottomed plate. Varying numbers of CTL were added to give a final volume of 200 μl and incubated for 4 hours at 37° C. At the end of the assays, supernatants (50 μl/well) were harvested and counted in a beta-plate counter. […] The spontaneous and maximal release were determined in the presence of either medium or 2% Triton X-100, respectively.
In a further experiment, CTL were generated from PBMNC of HLA-A*0201-positive patient with chronic lymphatic leukemia (CLL), which were specific for adipophilin-peptide with SEQ ID NO:2. The patient was in remission after treatment with fludarabine. Further, autologous CLL-cells and DC of this patient were used as ^51Cr-labeled targets in an assay, in which ^51Cr-release is mediated by the peptide-induced CTL.

[3] = system: 51Cr-labeled A 498; assay: Lysis-inhibition assay with cold peptide-pulsed T2 inhibitor cells, target A 498
Method: (§1) To further verify the antigen-specificity and the MHC-restriction of the in-vitro-induced CTL, inhibition assays with non-^51Cr-labeled (“cold”) inhibitor cell lines were performed.
(§2) In doing so, the ability of peptide-pulsed cell lines was analyzed to inhibit the lysis of tumor cells (competition assay). For this purpose, an excess of inhibitor (that is an excess of unlabeled pulsed cells) was used. The ratio of inhibitor (peptide-pulsed cells) to target (tumor cells) was 20:1. When inhibitor cell lines were lysed, no ^51Cr was released, since the inhibitor cell lines were unlabeled.
(§3) Cell line T2 (HLA-A*02; TAP-deficient; see under 2.5.a) was used as inhibitor. Previous to the assay, this cell line T2 was pulsed with the relevant peptides (SEQ ID NOS:1 or 2) or an irrelevant control peptide (Survivin (=Sv), SEQ ID NO:80), respectively.
(§4) In FIGS. 4a and 4b, lysis of the ^51Cr-labeled cell lines U 266 and A 498 was tested without inhibitor cell line (see the curve with black filled boxes); lysis with inhibitor cell line T2, pulsed with an irrelevant peptide (Survivin; SEQ ID NO:80; negative control, curves with the filled triangles); and lyses with the inhibitor cell line T2 pulsed with the c-Met-peptide with SEQ ID NO:1 (curves with the empty rhombus).
With these inhibition assays, the cells were incubated with 10 μg/ml antibody previous to seeding on the 96-well-plates for 30 min.

[4] = system: 51Cr-labeled U 266; assay: Lysis-inhibition assay with cold peptide-pulsed T2 inhibitor cells, target U 266; details: c-Met-peptide-induced CTL, inhibitor:target 20:1, FIGS. 4a and 4b
Method: as §1, §2, §3, §4

Sequence | healthy individuals with a significant population of specific CD8+-T-lymphocytes [1] | lysis of autologous DC pulsed with the peptide [2] | inhibition of CTL-induced lysis of tumor cell line by T2 cells pulsed with the peptide ([3]; adipophilin-peptide-induced CTL, FIG. 4c) | lysis of 51Cr-labeled tumor cells in presence of unlabeled T2 inhibitor cells pulsed with the peptide ([3]; c-Met-peptide-induced CTL, inhibitor:target 20:1, FIGS. 4a and 4b) | lysis of 51Cr-labeled tumor cells in presence of unlabeled T2 inhibitor cells pulsed with the peptide [4]
ALLNIKVKL (listed as Homo sapiens) [SEQ ID No. 3, HLA-A*02 ligand, keratin 18 365-373] | four out of 22 |  |  |  | 
ELTLGEFLKL (listed as Homo sapiens) [Survivin, irrelevant control peptide, reference compound] |  | not lysed | not able to inhibit | not able to inhibit | not able to inhibit
